Laboratory results from patent publication US20070196344A1, “Methods for identifying materials that can help regulate the condition of mammalian keratinous tissue” (The Procter & Gamble Company, priority 2006, published 2007).

Legend:
[1] = tested on: Hyaluronic Acid; assay: Hyaluronic acid ELISA on extracts of treated MatTek EpiDermFT (EFT-200) full thickness skin equivalent cultures; type: cell-based, human; details: topical 0.5%, 1.0%, 2.0% in water, 20-24 hours, EFT-200 cultures, vs vehicle Control; dose-responsive
Protocol: (§1) To evaluate skin anti-aging benefits of n-acetyl glucosamine and niacinamide. An in vitro skin biomarker experiment is conducted using the MatTek Human Skin EpiDermFT Skin Model (EFT 200; MatTek Corp., Ashland, Mass. USA). The MatTek Skin Model is a full thickness culture system that emulates normal human skin properties and function. It contains a three-dimensional, highly differentiated human epidermis with 8-12 cell layers including basal, spinous, granular and stratum corneum layers; the epidermis is grown above a human dermal fibroblast-containing collagen matrix. The MatTek cultures are air-interfaced, so that test substances can be applied topically to the stratum corneum surface. The cultures are supplied in 24-well, medium-supplemented agarose gels.
(§2) MatTek EFT-200 full thickness skin equivalent cultures used are examined for visual defects and equilibrated overnight after their arrival from the supplier. After treatment with test materials the cultures' viability is confirmed through MTT viability assay. […]
(§3) After treatment for 20-24 hours, replicate (3) cultures are extracted using a mild extraction buffer (T-per). The extract is then analyzed for hyaluronic acid and procollagen-1.
(§4) • 1. […] Analyze supernatant with the Micro BCA kit to quantitate protein concentration. • 4. […]

[2] = tested on: Procollagen I; assay: Procollagen I ELISA on extracts of treated MatTek EpiDermFT (EFT-200) full thickness skin equivalent cultures; type: cell-based, human; details: topical 0.5%, 2.0% in water, 20-24 hours, EFT-200 cultures, vs vehicle Control, dose-responsive
Protocol: as §1, §2, §3, §4

## CC(=O)N[C@@H]1[C@@H](O)[C@H](O)[C@@H](CO)O[C@H]1O [n-Acetyl Glucosamine]
[1]
  expression of hyaluronic acid: significantly increased over Control
[2]
  expression of procollagen 1: significantly increased over Control
